From patent US20060069132A1, “Azolecarboxamide herbicides” (priority 2004, published 2006)

Key:
mustard = experiment: Test E pre-/postemergence herbicide test; format: in vivo, Brassica nigra; conditions: Preemergence
Method in brief: (§1)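 In this greenhouse assay, compounds in a solvent vehicle containing surfactant were applied pre- and postemergence, the latter to plants 2 to 18 cm high. Control was judged by eye after 12 to 14 days on a 0 to 100 scale.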

common ragweed = experiment: Test E pre-/postemergence herbicide test; format: in vivo, Ambrosia elatior; conditions: Preemergence
Method in brief: as §1

common sowthistle = experiment: Test E pre-/postemergence herbicide test; format: in vivo, Sonchus oleraceous; conditions: Preemergence
Method in brief: as §1

wheat = experiment: Test C postemergence herbicide test; format: in vivo, Triticum aestivum
Method in brief: (§2)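 After a postemergence application at 1 to 4 leaves (plants 2–18 cm high), or at 2 leaves for barnyardgrass in flooded paddy, plants stayed in the greenhouse for 12 to 14 days. Damage was then judged visually relative to control plants, with 100 indicating complete control.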

field bindweed = experiment: Test E pre-/postemergence herbicide test; format: in vivo, Convolvulus arvensis; conditions: Preemergence
Method in brief: as §1

barnyardgrass = experiment: Test E pre-/postemergence herbicide test; format: in vivo, Echinochloa crus-galli; conditions: Preemergence
Method in brief: as §1

blackgrass = experiment: Test C postemergence herbicide test; format: in vivo, Alopecurus myosuroides
Method in brief: as §2

green foxtail = experiment: Test E pre-/postemergence herbicide test; format: in vivo, Setaria viridis; conditions: Preemergence
Method in brief: as §1

common purslane = experiment: Test E pre-/postemergence herbicide test; format: in vivo, Portulaca oleracea; conditions: Preemergence
Method in brief: as §1

common chickweed = experiment: Test E pre-/postemergence herbicide test; format: in vivo, Stellaria media; conditions: Preemergence
Method in brief: as §1

prickly sida = experiment: Test E pre-/postemergence herbicide test; format: in vivo, Sida spinosa; conditions: Preemergence
Method in brief: as §1

bermudagrass = experiment: Test E pre-/postemergence herbicide test; format: in vivo, Cynodon dactylon; conditions: Preemergence
Method in brief: as §1

quackgrass = experiment: Test E pre-/postemergence herbicide test; format: in vivo, Elytrigia repens; conditions: Preemergence
Method in brief: as §1

[1] = 125 g ai/ha, scale 0 (no effect) to 100 (complete control)
[2] = 250 g ai/ha, scale 0 (no effect) to 100 (complete control)
[3] = 500 g ai/ha, scale 0 (no effect) to 100 (complete control)
[4] = Postemergence, 500 g ai/ha, scale 0 to 100
[5] = Postemergence, 250 g ai/ha, scale 0 to 100, 0 no effect, 100 complete control
[6] = postemergence, 125 g ai/ha, scale 0 to 100
[7] = postemergence, 62 g ai/ha, scale 0 to 100

With `CCNC(=O)c1cccc(NC(=O)c2cc(C(C)(C)C)nn2CC)n1` [Compound 144] the “Plant response rating, Black Mustard” value (mustard; 62 g ai/ha, scale 0 to 100) was 20, the “Plant response rating, Black Mustard” value (mustard; [1]) was 70 and the “Plant response rating, Black Mustard” value (mustard; [2]) was 75. For the same molecule, the “Plant response rating, Black Mustard” value (mustard; [3]) was 100, the “Plant response rating, Ragweed” value (common ragweed; 62 g ai/ha, scale 0 to 100) was 0 and the “Plant response rating, Ragweed” value (common ragweed; [1]) was 30. The “Plant response rating, Ragweed” value (common ragweed; [2]) was 40, the “Plant response rating, Ragweed” value (common ragweed; [3]) was 40 and the “Plant response rating, Sowthistle” value (common sowthistle; 62 g ai/ha, scale 0 to 100) was 10. For the same molecule, the “Plant response rating, Sowthistle” value (common sowthistle; [1]) was 50, the “Plant response rating, Sowthistle” value (common sowthistle; [2]) was 90 and the “Plant response rating, Sowthistle” value (common sowthistle; [3]) was 95. For the same molecule, the “Wheat plant response rating” value (wheat; [4]) was 30, the “Plant response rating, Wheat” value (wheat; [5]) was 30 and the “Plant response rating, Wheat” value (wheat; [6]) was 30. The “Plant response rating, Wheat” value (wheat; [7]) was 20, the “Plant response rating, Bindweed, Field” value (field bindweed; 62 g ai/ha, scale 0 to 100) was 0 and the “Plant response rating, Bindweed, Field” value (field bindweed; [2]) was 50. The “Plant response rating, Bindweed, Field” value (field bindweed; [3]) was 80, the “Plant response rating, Barnyardgrass” value (barnyardgrass; 62 g ai/ha, scale 0 to 100) was 30 and the “Plant response rating, Barnyardgrass” value (barnyardgrass; [1]) was 60. The “Plant response rating, Barnyardgrass” value (barnyardgrass; [2]) was 80, the “Plant response rating, Barnyardgrass” value (barnyardgrass; [3]) was 90 and the “Blackgrass plant response rating” value (blackgrass; [4]) was 40. The “Plant response rating, Blackgrass” value (blackgrass; [5]) was 40, the “Plant response rating, Blackgrass” value (blackgrass; [6]) was 30 and the “Plant response rating, Blackgrass” value (blackgrass; [7]) was 30. The “Plant response rating, Foxtail, Green” value (green foxtail; 62 g ai/ha, scale 0 to 100) was 10, the “Plant response rating, Foxtail, Green” value (green foxtail; [1]) was 50 and the “Plant response rating, Foxtail, Green” value (green foxtail; [2]) was 80. The “Plant response rating, Foxtail, Green” value (green foxtail; [3]) was 90, the “Plant response rating, Purslane” value (common purslane; 62 g ai/ha, scale 0 to 100) was 0 and the “Plant response rating, Purslane” value (common purslane; [1]) was 20. The “Plant response rating, Purslane” value (common purslane; [2]) was 90, the “Plant response rating, Purslane” value (common purslane; [3]) was 100 and the “Plant response rating, Chickweed” value (common chickweed; 62 g ai/ha, scale 0 to 100) was 50. For the same molecule, the “Plant response rating, Chickweed” value (common chickweed; [1]) was 90, the “Plant response rating, Chickweed” value (common chickweed; [2]) was 95 and the “Plant response rating, Chickweed” value (common chickweed; [3]) was 95. The “Plant response rating, Prickly Sida” value (prickly sida; 62 g ai/ha, scale 0 to 100) was 10, the “Plant response rating, Prickly Sida” value (prickly sida; [1]) was 90 and the “Plant response rating, Prickly Sida” value (prickly sida; [2]) was 90. For the same molecule, the “Plant response rating, Prickly Sida” value (prickly sida; [3]) was 95, the “Plant response rating, Bermudagrass” value (bermudagrass; 62 g ai/ha, scale 0 to 100) was 50 and the “Plant response rating, Bermudagrass” value (bermudagrass; [1]) was 80. The “Plant response rating, Bermudagrass” value (bermudagrass; [2]) was 85, the “Plant response rating, Bermudagrass” value (bermudagrass; [3]) was 90 and the “Plant response rating, Quackgrass” value (quackgrass; 62 g ai/ha, scale 0 to 100) was 10. The “Plant response rating, Quackgrass” value (quackgrass; [1]) was 30, the “Plant response rating, Quackgrass” value (quackgrass; [2]) was 70 and the “Plant response rating, Quackgrass” value (quackgrass; [3]) was 80.
